Measurements taken from patent US4292317A, “1,4-Dihydro-quinoline-3-carboxylic acid derivatives, process for their preparation and compositions containing them” (Laboratorie Roger Bellon, priority 1977, dated 1981).
Values after ≈ are worked out from the molar mass of the structure shown.

Tests used:
[1] = test system: Pr. mirabilis Nig; experiment: M.I.C. in vitro, nutrient agar dilution; type: cell-based; conditions: Proteus mirabilis, 18 h; Table III; Pr. mirabilis Nig; read-out: M.I.C.
Method in brief: (§1)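 Agar dilution, medium pH 6.8 post-autoclave (120° C.); compound 0.05–100 μg/cm^3, factor-2 series. Inoculum: 10^-3 dilution of 18 h broth culture, multipoint inoculator. 37° C., 18 h. MIC = lowest conc. inhibiting growth.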

[2] = test system: S. enteritidis Danysz; experiment: M.I.C. in vitro, nutrient agar dilution; type: cell-based; conditions: Salmonella enterica, 18 h; Table III; S. enteritidis Danysz; read-out: M.I.C.
Method in brief: as §1

[3] = test system: Ps. aeruginosa A.22; experiment: M.I.C. in vitro, nutrient agar dilution; type: cell-based; conditions: Pseudomonas aeruginosa, 18 h; Table III; Ps. aeruginosa A.22; read-out: M.I.C.
Method in brief: as §1

[4] = test system: Esch. coli 111 B4; experiment: M.I.C. in vitro, nutrient agar dilution; type: cell-based; conditions: Escherichia coli, 18 h; Table III; Esch. coli 111 B4
Method in brief: as §1

[5] = test system: Providentia 0223; experiment: M.I.C. in vitro, nutrient agar dilution; type: cell-based; conditions: 18 h; Table III; Providentia 0223; read-out: M.I.C.
Method in brief: as §1

[6] = test system: B. subtilis; experiment: M.I.C. in vitro, nutrient agar dilution; type: cell-based; conditions: Bacillus subtilis, 18 h; Table III; B. Subtilis; read-out: M.I.C.
Method in brief: as §1

[7] = test system: Esch. coli 95 I.S.M.; experiment: M.I.C. in vitro, nutrient agar dilution; type: cell-based; conditions: Escherichia coli, 18 h; Table III; Esch. coli 95 I.S.M.; read-out: M.I.C.
Method in brief: as §1

[8] = test system: Sh. sonnei I.P.S.; experiment: M.I.C. in vitro, nutrient agar dilution; type: cell-based; conditions: Shigella sonnei, 18 h
Method in brief: as §1

[9] = test system: Pr. vulgaris 12-53; experiment: M.I.C. in vitro, nutrient agar dilution; type: cell-based; conditions: Proteus vulgaris, 1253, 18 h; Table III; Pr. vulgaris 12-53; read-out: M.I.C.
Method in brief: as §1

[10] = test system: Pr. morganii A.236; experiment: M.I.C. in vitro, nutrient agar dilution; type: cell-based; conditions: Morganella morganii, 18 h; Table III; Pr. morganii A. 236; read-out: M.I.C.
Method in brief: as §1

[11] = test system: Strepto A 561; experiment: M.I.C. in vitro, nutrient agar dilution; type: cell-based; conditions: 18 h; Table III; Strepto A 561
Method in brief: as §1

[12] = test system: Staph. 209 P; experiment: M.I.C. in vitro, nutrient agar dilution; type: cell-based; conditions: 18 h; Table III; Staph. 209 P; read-out: M.I.C.
Method in brief: as §1

[13] = test system: Ps. aeruginosa 72.345; experiment: M.I.C. in vitro, nutrient agar dilution; type: cell-based; conditions: Pseudomonas aeruginosa, 18 h; Table III; Pd. aeruginosa 72.345; read-out: M.I.C.
Method in brief: as §1

[14] = test system: Esch. coli 54.127 O.M.S.; experiment: M.I.C. in vitro, nutrient agar dilution; type: cell-based; conditions: Escherichia coli, 18 h; Table III; Esch. coli 54.127 O.M.S.; read-out: M.I.C.
Method in brief: as §1

[15] = test system: S. oranienburg 1066; experiment: M.I.C. in vitro, nutrient agar dilution; type: cell-based; conditions: Salmonella enterica, 18 h; Table III; S. oranienburg 1066; read-out: M.I.C.
Method in brief: as §1

[16] = test system: Staph. 9.144; experiment: M.I.C. in vitro, nutrient agar dilution; type: cell-based; conditions: 18 h; Table III; Staph. 9.144; read-out: M.I.C.
Method in brief: as §1

[17] = test system: Bord. bronchis. 4.617; experiment: M.I.C. in vitro, nutrient agar dilution; type: cell-based; conditions: 18 h; Table III; Bord. bronchis. 4.617; read-out: M.I.C.
Method in brief: as §1

[18] = test system: Klebs. pneum. 10.031; experiment: M.I.C. in vitro, nutrient agar dilution; type: cell-based; conditions: 18 h; Table III; Klebs. pneum. 10.031; read-out: M.I.C.
Method in brief: as §1

[19] = test system: Arizona 6.211; experiment: M.I.C. in vitro, nutrient agar dilution; type: cell-based; conditions: 18 h; Table III; Arizona 6.211; read-out: M.I.C.
Method in brief: as §1

[20] = test system: Strepto D.M. 19; experiment: M.I.C. in vitro, nutrient agar dilution; type: cell-based; conditions: 18 h; Table III; Strepto D.M. 19; read-out: M.I.C.
Method in brief: as §1

[21] = test system: Serratia; experiment: M.I.C. in vitro, nutrient agar dilution; type: cell-based; conditions: 18 h, Table III, read-out: M.I.C.
Method in brief: as §1

[22] = test system: Salm. typhi 0901; experiment: microbe, parasite or virus in culture; type: cell-based; conditions: Salmonella enterica, 18 h; Table III; Salm. typhi 0901
Method in brief: as §1

[23] = test system: Strept. pyogenes A. 65; experiment: Systemic infection in mice; type: in vivo; conditions: Streptococcus pyogenes, po, 168 h, mice, p.o. at infection and 6 hours later, Strept. pyogenes A. 65, 7 days
Description: (§2) The activity of the compounds according to the invention against systemic infections in mice, caused by Staphylococcus 50,774, Streptococcus pyogenes A 65, Pseudomonas aeruginosa No. 12 and Escherichia coli P 5101, has been studied.
(§3) The infections were set up by intraperitoneal injection of a suspension of the bacterial culture corresponding to the germ studied. The products were administered orally at the time of injection, and 6 hours later. […] Aureus and for 7 days for the other germs.
(§4) Oxolinic acid was used as the reference substance.

[24] = test system: Pseudomonas aeruginosa No. 12; experiment: Systemic infection in mice; type: in vivo; conditions: po, 168 h, mice, p.o. at infection and 6 hours later, P. aeruginosa No. 12, 7 days
Description: as §2, §3, §4

[25] = test system: Staph. aureus 50,774; experiment: Systemic infection in mice; type: in vivo; conditions: Staphylococcus aureus, po, 336 h, mice, p.o. at infection and 6 hours later, Staph. aureus 50,774, 14 days
Description: as §2, §3, §4

[26] = test system: Escherichia coli P 5101; experiment: Systemic infection in mice; type: in vivo; conditions: P5101, po, 168 h, mice, p.o. at infection and 6 hours later, E. coli P 5101, 7 days
Description: as §2, §3, §4

[27] = test system: Strept. pyogenes A. 65; experiment: M.I.C. for germ used in experimental infection; type: cell-based; conditions: Streptococcus pyogenes, 18 h; Table 4; Strept. pyogenes A. 65; read-out: M.I.C.
Description: (§5) After sterilisation at 120° C., the pH was 6.8.
(§6) The minimum inhibitory concentrations (M.I.C.) were determined by dilution of the test compounds in this mixture, the concentration ranging from 0.05 to 100 μg/cm^3 in a geometric progression with a factor of 2.
(§7) The inoculation of the dishes was carried out by means of a multiple inoculator with 10^-3 dilutions of 18 hour old broth cultures.
(§8) The dishes were placed in an oven at 37° C. and the readings were taken afer an incubation time of 18 hours. The M.I.C. was taken as the lowest concentration which inhibited a culture.

[28] = test system: Pseudomonas aeruginosa No. 12; experiment: M.I.C. for germ used in experimental infection; type: cell-based; conditions: 18 h, Table 4, P. aeruginosa No. 12, read-out: M.I.C.
Description: as §5, §6, §7, §8

[29] = test system: Staph. aureus 50,774; experiment: M.I.C. for germ used in experimental infection; type: cell-based; conditions: Staphylococcus aureus, 18 h; Table 4; Staph. aureus 50,774; read-out: M.I.C.
Description: as §5, §6, §7, §8

[30] = test system: Escherichia coli P 5101; experiment: M.I.C. for germ used in experimental infection; type: cell-based; conditions: P5101, 18 h, Table 4, E. coli P 5101, read-out: M.I.C.
Description: as §5, §6, §7, §8

CCn1cc(C(=O)O)c(=O)c2cc(F)c(N3CCNCC3)cc21 [Example 22, 1-Ethyl-6-fluoro-4-oxo-7-piperazinyl-1,4-dihydro-quinoline-3-carboxylic acid]
MIC [1]: 0.1 to 0.2 µg/mL (≈ 0.313 to 0.626 µM)
MIC [2]: 0.2 µg/mL (≈ 0.626 µM)
MIC [3]: 0.4 to 0.8 µg/mL (≈ 1.25 to 2.51 µM)
MIC [4]: 0.1 to 0.2 µg/mL (≈ 0.313 to 0.626 µM)
MIC [5]: 0.8 to 1.6 µg/mL (≈ 2.51 to 5.01 µM)
MIC [6]: 0.2 µg/mL (≈ 0.626 µM)
MIC [7]: 0.2 µg/mL (≈ 0.626 µM)
MIC [8]: 0.01 to 0.02 µg/mL (≈ 0.0313 to 0.0626 µM)
MIC [9]: 0.05 µg/mL (≈ 0.157 µM)
MIC [10]: 0.05 µg/mL (≈ 0.157 µM)
MIC [11]: 50 µg/mL (≈ 157 µM)
MIC [12]: 0.2 to 0.4 µg/mL (≈ 0.626 to 1.25 µM)
MIC [13]: 0.4 to 0.8 µg/mL (≈ 1.25 to 2.51 µM)
MIC [14]: 0.2 µg/mL (≈ 0.626 µM)
MIC [15]: 6.2 µg/mL (≈ 19.4 µM)
MIC [16]: 0.2 to 0.4 µg/mL (≈ 0.626 to 1.25 µM)
MIC [17]: 6.25 to 12.5 µg/mL (≈ 19.6 to 39.1 µM)
MIC [18]: 0.1 to 0.2 µg/mL (≈ 0.313 to 0.626 µM)
MIC [19]: 0.2 µg/mL (≈ 0.626 µM)
MIC [20]: 1.6 to 3.1 µg/mL (≈ 5.01 to 9.71 µM)
MIC [21]: 1 to 6.2 µg/mL (≈ 3.13 to 19.4 µM)
MIC [22]: 0.05 to 0.2 µg/mL (≈ 0.157 to 0.626 µM)
ED50 ([23]; read-out: ED50): > 100 mg/kg
ED90 ([23]; read-out: ED90): > 100 mg/kg
ED50 ([24]; read-out: ED50): 17.7 mg/kg
ED90 ([24]; read-out: ED90): 25.9 mg/kg
ED50 ([25]; read-out: ED50): 20.6 mg/kg
ED90 ([25]; read-out: ED90): 44.1 mg/kg
ED50 ([26]; read-out: ED50): 4 mg/kg
ED90 ([26]; read-out: ED90): 10.4 mg/kg
MIC [27]: 1.56 µg/mL (≈ 4.89 µM)
MIC [28]: 0.78 µg/mL (≈ 2.44 µM)
MIC [29]: 0.78 µg/mL (≈ 2.44 µM)
MIC [30]: 0.1 µg/mL (≈ 0.313 µM)
